Experiments:
[1] = The compound was tested for Binding constant against DNA; assay type: ADME
DLD-1 = assay: Cytotoxicity against human colon cancer cells (DLD-1); assay type: functional, cell-based
[2] = The compound was tested for free energy change at binding to DNA; assay type: ADME
HCT-116 = assay: Cytotoxicity against human colon cancer cells (HCT116); assay type: functional, cell-based
MKN-45 = assay: Cytotoxicity against human gastric cancer cells (MKN-45); assay type: functional, cell-based; details: MKN-45, Stomach
P388 = assay: Cytotoxicity against murine leukemia cell line (P388); assay type: functional, cell-based; details: Mus musculus

SMILES	K/10e4 [1]	IC50 (DLD-1)	-Delta G obs [2]	IC50 (HCT-116)	IC50 (MKN-45)	IC50 (P388)
O=CNN1C(=O)c2c(c3c4cccc(O)c4n(C4OC(CO)C(O)C(O)C4O)c3c3[nH]c4c(O)cccc4c23)C1=O (centres undefined)	2.64 M⁻¹	2100 nM	5.91 kcal/mol	120 nM	390 nM	62 nM
O=C1c2c(c3c4cccc(O)c4n(C4OC(CO)C(O)C(O)C4O)c3c3[nH]c4c(O)cccc4c23)C(=O)N1NC(CO)CO (centres undefined)	8.19 M⁻¹		6.56 kcal/mol	32 nM		
